Patent publication US7183440B2, “Pharmaceutically useful compounds” (priority 2005, dated 2007)
Like-named read-outs stand apart in the source and are kept apart here.

Experiments:
HSF = HSF activation, luciferase reporter controlled by the human hsp70 promoter in HeLa cell clone 13B; type: cell-based; settings: Homo sapiens; concentration at which the compound doubled HSF activity; HeLa clone 13B, 8 h treatment; read-out: HSF AC200/μM
Protocol: (§1) HeLa cell clone 13B, stably transfected with a luciferase reporter plasmid controlled by the human hsp70 promoter, and HeLa κB-transformed cells, stably transfected with a luciferase reporter plasmid controlled by a synthetic NF-κB-STM construct, were maintained in DMEM medium supplemented with 10% FBS, L-glutamine (2 mM) and G418 (250 μg/ml) at 37° C. in a 5% CO2 humidified atmosphere.
(§2) Cells were seeded at a density of 4×10^4 cells/well in 96-well plates. After 18–20 h, the medium was removed and cells were treated for 8 h with the test compounds (100 μl) at the appropriate dilutions in serum-free medium. For the NF-κB-dependent reporter gene assay, cells were stimulated with TPA (25 ng/ml) 2 h after exposure to the compounds.
(§3) After incubation, the medium was removed and cells were lysed in 10 μl of lysis buffer. The luciferase activity was determined by adding 100 μl of substrate and measuring the release of light using a Victor 1420 microplate reader (Wallac, Finland).
(§4) The AC200/μM for HSF is the concentration at which the tested compound doubled the HSF activity in this assay. The IC50/μM for NF-κB is the concentration at which the tested compound halved the NF-κB activity in this assay. […] The LC50/μM is the concentration at which the tested compound killed half the cells in each assay. […] (n.d. means not done)

NF-κB = test: NF-κB-dependent luciferase reporter gene assay in HeLa κB-transformed cells stimulated with TPA; type: cell-based, human; settings: Homo sapiens; concentration that halved NF-κB activity; HeLa reporter cells, TPA 25 ng/ml, 8 h treatment
Protocol: as §1, §2, §3
The fragment Kpn I-BamH I from the pGL3 basic vector containing the luciferase gene (PROMEGA) was inserted in the pcDNA3 vector (INVITROGEN) digested with Bgl II-KpnI. (This digestion removes the CMV-promoter from pcDNA3.) The resulting new vector was digested with Kpn I-Hind III and a promoter containing a ‘5×NF-κB binding sites-TATA box’ sequence was inserted upstream of the luciferase gene. This vector has been named STM.
To obtain stable HeLa cell lines expressing the luciferase gene under the control of NF-κB, HeLa cells were transfected (using lipofectamine plus GIBCO) with the STM-Pvu I linearized vector, and selected for 20 days with G418 (800 μg/ml). After selection, the resistant HeLa cell pool was controlled (in quadruplicate samples) for luciferase activity after stimulation with TNFα, IL-1 and TPA.
as §4

HeLa cells = test: in vitro; type: cell-based; settings: human, 8 h
Protocol: HeLa cells were plated in 96-well microtiter plates in 100 μl culture medium (4×10^4/well). After 20 hours, the cells were exposed to the test compounds at different dilutions and incubated for the next 8 h at 37° C. in a 5% CO2 humidified atmosphere. After 6 h incubation, the Alamar Blue was added in an amount equal to 10% of the culture volume (10 μl). Two hours after the addition of the Alamar Blue, the fluorescence was measured using a Victor 1420 microplate reader.

in vitro [1] = test: in vitro
Protocol: This assay was carried out on HeLa cells using a technique analogous to that described below in Example 36(b) for Monkey Kidney 37RC cells.
as §4
Cell viability was determined using the Neutral Red assay. 37RC cells were seeded at density of 6×10^4 cells/well in 24-well plates and incubated for 24 h. Confluent 37RC monolayers were treated with the test compounds at different dilutions for 24 h at 37° C. After incubation, the medium was removed and the cells were incubated with RPMI medium containing 40 μg/ml Neutral Red dye (500 μl/well). After 2 h at 37° C., the monolayers were washed with phosphate-buffered saline (PBS) and then with a solution containing 1% CaCl2 and 0.5% formaldehyde. After washing, a solution containing 1% acetic acid/50% ethanol was added to the monolayers (250 μl/well). After 10 min at room temperature, the absorbance was determined with a microplate reader (Victor 1420, Wallac) at 540 nm.

in vitro [2] = type: cell-based; settings: monkey, 50% lethal dose/concentration, neutral red assay, 37RC cells, read-out: LC50/μM
Protocol: Cell viability was determined using the Neutral Red assay.

Monkey kidney 37RC cells = type: cell-based; settings: concentration 100% toxic to uninfected 37RC cells, visually by microscopy
Sendai virus = test: Replication of Sendai virus in 37RC cells, virus yield by haemagglutinin titration; type: cell-based; settings: Respirovirus muris; 50% inhibitory dose/concentration at 24 hours, Sendai virus in 37RC cells; read-out: ID50/μM
Protocol: Monkey kidney 37RC cells were grown at 37° C. in RPMI medium supplemented with 5% foetal bovine serum (FBS), L-glutarine (2 mM) and antibiotics. Sendai virus was grown in the allantoic cavity of 10-day-old embryonated eggs. Viral titre was expressed in haemagglutinating units (HAU) per ml; haemagglutinin titration was done according to standard procedures, as described in C. Amici et al. (J. Virol. 68: 6890–6899, 1994). […] Confluent 37RC monolayers were infected with Sendai Virus (5 HAU/ml) for 1 h at 37° C. After 1 hour incubation, viral inoculum was removed and cells were treated with the test compounds at different concentrations. Virus yields were determined 24 h post infection by haemagglutinin titration. Mock-infected cells were treated identically and processed for cytotoxicity assay (Neutral Red assay) at the same time (see below). The results were expressed as HAU/ml (each point represents the mean of duplicate samples).

Structure (SMILES) | EC (2-fold HSF activity) (HSF) [µM] | IC50 (NF-κB) [µM] | CC50 (HeLa cells) [µM] | CC50 at 24 h (in vitro [1]; human) [µM] | CC50 at 24 h (in vitro [2]) [µM] | TD100/μM (Monkey kidney 37RC cells) [µM] | IC50 (Sendai virus) [µM] | CC50 at 24 h (in vitro [1]) [µM]
CC(C)/C=C1/C(=O)C=CC1C (stereo not drawn) [CTC-154] | 13 | 14 | > 800 |  |  |  |  | 
CCOC(=O)N(C(=O)OC(C)(C)C)C1C=CC(=O)C1 (stereo not drawn) [CTC-267, N-tert-Butoxycarbonyl-(4-Oxocyclopent-2-enyl)-carbamic acid ethyl ester] | 18 | 35 |  | 233 |  |  |  | 
CCOC(=O)NC1C=CC(=O)C1 (stereo not drawn) [CTC-271, (4-Oxocyclopent-2-enyl)-carbamic acid ethyl ester] | 49 | 39 |  | 104 |  |  |  | 
O=C1C=CC(NC(=O)CCl)C1 (stereo not drawn) [CTC-304, 2-Chloro-N-(4-oxo-cyclopent-2-enyl)-acetamide] | < 6.2 | < 6.2 |  | 79 |  |  |  | 
CC(C)/C=C1/C(=O)C=C[C@H]1NC(=O)OC(C)(C)C [CTC-195, (2R)-(5-iso-Butylidene-4-oxocyclopent-2-enyl)-carbamic acid tert-butyl ester] | 5 | 6.6 | > 800 |  | 4 | 10 | 0.4 | 
CC(C)(C)OC(=O)NC1C=CC(=O)/C1=C/c1ccc(Cl)cc1 (stereo not drawn) [CTC-247, [(E)-5-(4-Chloro-benzylidene)-4-oxo-cyclopent-2-enyl]-carbamic acid tert-butyl ester] | 2 | 9 | > 800 | 72 | 3.4 | 10 | 0.6 | 
CCCCC1C=CC(=O)/C1=C/CC(C)C (stereo not drawn) [CTC-122] | 13 | 12 | 227 |  |  | 50 | 0.3 | 
O=C1C=CC(Nc2ccccc2)C1 (stereo not drawn) [CTC-252, 4-Phenylamino-cyclopent-2-one] | 27 | 57 | > 800 |  |  |  |  | 
O=C1C=CC(NC(=O)Oc2ccccc2)C1 (stereo not drawn) [CTC-260, (4-Oxocyclopent-2-enyl)-carbamic acid phenyl ester] | 10 | 9 |  |  |  |  |  | 74
CCCCCC/C=C1/C(=O)C=CC1C (stereo not drawn) [CTC-162] | < 6.2 | < 6.2 | 234 |  |  |  |  | 
COC(=O)[C@H](CSC1CC(=O)/C(=C/C(C)C)C1C)NC(=O)OC(C)(C)C (stereo partly drawn) [CTM-126] | 18 | 21 | > 800 |  |  |  |  | 
Cc1cc(C)c(/C=C2/C(=O)C=C[C@@H]2NC(=O)OC(C)(C)C)c(C)c1 [CTC-285, (1S)-[4-Oxo-(E)-5-(2,4,6-trimethyl-benzylidene)-cyclopent-2-enyl]-carbamic acid tert-butyl ester] | < 6.2 | 10 |  | 25 |  |  |  | 
CCCCC/C=C1/C(=O)C=CC1C (stereo not drawn) [CTC-164] | > 100 | 40 | > 800 |  |  |  |  | 
CC(C)/C=C1/C(=O)C=C[C@@H]1NC(=O)OC(C)(C)C [CTC-199, (2S)-(5-iso-Butylidene-4-oxocyclopent-2-enyl)-carbamic acid tert-butyl ester] | 1.8 | 5 | > 800 |  | 4 | 50 | 1 | 
CC(C)/C=C1/C(=O)C=CC1NC(=O)OC(C)(C)C (stereo not drawn) [CTC-121, (5-iso-Butylidene-4-oxocyclopent-2-enyl)-carbamic acid tert-butyl ester] | 2.8 | 4.7 | > 800 |  | 4 | 50 | 1 | 
CCCCC1C=CC(=O)/C1=C/C(C)C (stereo not drawn) [CTC-145] | 13 | 38 | 506 |  |  | 10 | 0.3 | 
CC1C=CC(=O)/C1=C/c1ccccc1 (stereo not drawn) [CTC-150, 4-Methyl-5-[1-phenyl-meth-(E)-ylidene]-cyclopent-2-enone] | 3 | 7 | 314 |  |  | 50 | 0.9 | 
CCCCC1C=CC(=O)/C1=C/C1CC1 (stereo not drawn) [CTC-177] | 8 | 14 | 239 |  |  |  |  | 
CC(C)(C)OC(=O)N[C@@H](CS[C@@H]1CC(=O)/C(=C/c2ccccc2)[C@H]1NC(=O)OC(C)(C)C)C(=O)O [CTM-228, (2R)-3-((1R,2R)-(E)-3-Benzylidene-2-tert-butoxycarbonylamino-4-oxocyclopentylsulfanyl)-2-tert-butoxycarbonylaminopropionic acid] | < 6.2 | < 6.2 |  | 25 |  |  |  | 
O=C1C=CC(NC(=O)c2ccccc2)C1 (stereo not drawn) [CTC-171, N-(4-Oxocyclopent-2-enyl)-benzamide] | 51 | 38 | > 800 |  | 59 | 100 | 20 | 
CC(C)(C)OC(=O)NC1C=CC(=O)C1 (stereo not drawn) [CTC-132, (4-Oxocyclopent-2-enyl)-carbamic acid tert-butyl ester] | 51 | 52 | > 800 |  |  | 100 | 20 | 
